Biological target: T1, PLK1 (Homo sapiens, UniProt P53350)
T1 construct: endogenous in cells; host or cells: HeLa
Test: PLK1 protein degradation in HeLa cells, Western blotting (PLK1/GAPDH ratio)
Format: cell-based
Conditions: thymidine block and release, 6 hours compound incubation, 10 points three-fold from 3 μM, PLK1 to GAPDH ratio, read-out: Dmax
Summary of the method: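 Thymidine-synchronised HeLa cells (2 mM, 24 h) released 4 h into complete medium, then treated 6 h with compound in 10-point 3-fold dilutions from 3 μM. RIPA lysates (15 μg protein) run on SDS-PAGE; PLK1 Western blot normalised to GAPDH.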

T1 sequence (P53350 whole entry): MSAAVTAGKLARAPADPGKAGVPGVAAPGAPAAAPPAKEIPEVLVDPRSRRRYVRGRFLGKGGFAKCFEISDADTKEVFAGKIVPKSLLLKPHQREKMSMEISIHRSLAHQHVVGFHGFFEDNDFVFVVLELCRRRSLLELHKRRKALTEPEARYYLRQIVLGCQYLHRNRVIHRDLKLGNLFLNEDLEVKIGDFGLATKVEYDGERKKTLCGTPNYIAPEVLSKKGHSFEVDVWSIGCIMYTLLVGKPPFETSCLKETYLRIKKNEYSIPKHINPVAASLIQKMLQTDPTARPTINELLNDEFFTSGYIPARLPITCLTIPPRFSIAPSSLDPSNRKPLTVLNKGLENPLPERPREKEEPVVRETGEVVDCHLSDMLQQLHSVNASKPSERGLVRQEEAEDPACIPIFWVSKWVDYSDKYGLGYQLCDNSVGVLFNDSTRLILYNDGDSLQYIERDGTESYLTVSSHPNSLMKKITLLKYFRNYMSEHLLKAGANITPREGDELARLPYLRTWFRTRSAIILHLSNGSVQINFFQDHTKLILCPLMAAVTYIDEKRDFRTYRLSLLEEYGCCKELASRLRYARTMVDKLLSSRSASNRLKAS

Compound	Dmax [%]
COc1cc(C(=O)NCCCCCCCc2cccc3c2CN(C2CCC(=O)NC2=O)C3=O)c(F)cc1Nc1ncc2c(n1)N(C1CCCC1)CC(F)(F)C(=O)N2C (stereo not shown) [Example 166, 4-((9-cyclopentyl-7,7-difluoro-5-methyl-6-oxo-6,7,8,9-tetrahydro-5H-pyrimido[4,5-b][1,4]diazepin-2-yl)amino)-N-(7-(2-(2,6-dioxopiperidin-3-yl)-1-oxoisoindolin-4-yl)heptyl)-2-fluoro-5-methoxybenzamide]	60 to 80
COc1cc(C(=O)NCCOCCOCCNc2cccc3c2C(=O)N(C2CCC(=O)NC2=O)C3=O)c(F)cc1Nc1ncc2c(n1)N(C(C)C)CC(F)(F)C(=O)N2C (stereo not shown) [Example 167, 4-((7,7-difluoro-9-isopropyl-5-methyl-6-oxo-6,7,8,9-tetrahydro-5H-pyrimido[4,5-b][1,4]diazepin-2-yl)amino)-N-(2-(2-(2-((2-(2,6-dioxopiperidin-3-yl)-1,3-dioxoisoindolin-4-yl)amino)ethoxy)ethoxy)ethyl)-2-fluoro-5-methoxybenzamide]	60 to 80
COc1cc(C(=O)NCCOCCOCCNc2cccc3c2C(=O)N(C2CCC(=O)NC2=O)C3=O)ccc1Nc1ncc2c(n1)N(C1CCCC1)CC(F)(F)C(=O)N2C (stereo not shown) [Example 168, 4-((9-cyclopentyl-7,7-difluoro-5-methyl-6-oxo-6,7,8,9-tetrahydro-5H-pyrimido[4,5-b][1,4]diazepin-2-yl)amino)-N-(2-(2-(2-((2-(2,6-dioxopiperidin-3-yl)-1,3-dioxoisoindolin-4-yl)amino)ethoxy)ethoxy)ethyl)-3-methoxybenzamide]	≥ 80
COc1cc(C(=O)NCCCOCCCOCCNc2cccc3c2C(=O)N(C2CCC(=O)NC2=O)C3=O)ccc1Nc1ncc2c(n1)N(C1CCCC1)CC(F)(F)C(=O)N2C (stereo not shown) [Example 169, 4-((9-cyclopentyl-7,7-difluoro-5-methyl-6-oxo-6,7,8,9-tetrahydro-5H-pyrimido[4,5-b][1,4]diazepin-2-yl)amino)-N-(3-(3-(2-((2-(2,6-dioxopiperidin-3-yl)-1,3-dioxoisoindolin-4-yl)amino)ethoxy)propoxy)propyl)-3-methoxybenzamide]	≥ 80

The next lines start with the values.

Dmax [%]	Compound
≥ 80	CN1C(=O)C(F)(F)CN(C2CCCC2)c2nc(Nc3ccc(C(=O)NCCCOCCCOCCNc4cccc5c4C(=O)N(C4CCC(=O)NC4=O)C5=O)cc3)ncc21 (stereo not shown) [Example 170, 4-((9-cyclopentyl-7,7-difluoro-5-methyl-6-oxo-6,7,8,9-tetrahydro-5H-pyrimido[4,5-b][1,4]diazepin-2-yl)amino)-N-(3-(3-(2-((2-(2,6-dioxopiperidin-3-yl)-1,3-dioxoisoindolin-4-yl)amino)ethoxy)propoxy)propyl)benzamide]
≥ 80	COc1cc(C(=O)NCCCOCCCOCCNc2cccc3c2CN(C2CCC(=O)NC2=O)C3=O)ccc1Nc1ncc2c(n1)N(C1CCCC1)CC(F)(F)C(=O)N2C (stereo not shown) [Example 171, 4-((9-cyclopentyl-7,7-difluoro-5-methyl-6-oxo-6,7,8,9-tetrahydro-5H-pyrimido[4,5-b][1,4]diazepin-2-yl)amino)-N-(3-(3-(2-((2-(2,6-dioxopiperidin-3-yl)-1-oxoisoindolin-4-yl)amino)ethoxy)propoxy)propyl)-3-methoxybenzamide]
≥ 80	COc1cc(C(=O)NC2CCN(CCOCCOCCOCCOCCOCCOCCOCCNc3cccc4c3C(=O)N(C3CCC(=O)NC3=O)C4=O)CC2)c(F)cc1Nc1ncc2c(n1)N(C1CCCC1)CC(F)(F)C(=O)N2C (stereo not shown) [Example 172, 4-((9-cyclopentyl-7,7-difluoro-5-methyl-6-oxo-6,7,8,9-tetrahydro-5H-pyrimido[4,5-b][1,4]diazepin-2-yl)amino)-N-(1-(23-((2-(2,6-dioxopiperidin-3-yl)-1,3-dioxoisoindolin-4-yl)amino)-3,6,9,12,15,18,21-heptaoxatricosyl)piperidin-4-yl)-2-fluoro-5-methoxybenzamide]
≥ 80	COc1cc(C(=O)N[C@H]2CCN(C(=O)CCCCN3CCN(c4cccc5c4C(=O)N(C4CCC(=O)NC4=O)C5=O)CC3)C2)c(F)cc1Nc1ncc2c(n1)N(C1CCCC1)CC(F)(F)C(=O)N2C (stereo partly drawn) [Example 173, 4-((9-cyclopentyl-7,7-difluoro-5-methyl-6-oxo-6,7,8,9-tetrahydro-5H-pyrimido[4,5-b][1,4]diazepin-2-yl)amino)-N-((3S)-1-(5-(4-(2-(2,6-dioxopiperidin-3-yl)-1,3-dioxoisoindolin-4-yl)piperazin-1-yl)pentanoyl)pyrrolidin-3-yl)-2-fluoro-5-methoxybenzamide]
≥ 80	COc1cc(C(=O)N[C@H]2CCN(C(=O)CCN3CCN(c4ccc5c(c4)C(=O)N(C4CCC(=O)NC4=O)C5=O)CC3)C2)ccc1Nc1ncc2c(n1)N(C1CCCC1)CC(F)(F)C(=O)N2C (stereo partly drawn) [Example 174, 4-((9-cyclopentyl-7,7-difluoro-5-methyl-6-oxo-6,7,8,9-tetrahydro-5H-pyrimido [4,5-b][1,4]diazepin-2-yl)amino)-N-((3S)-1-(3-(4-(2-(2,6-dioxopiperidin-3-yl)-1,3-dioxoisoindolin-5-yl)piperazin-1-yl)propanoyl)pyrrolidin-3-yl)-3-methoxybenzamide]
≥ 80	COc1cc(C(=O)N[C@H]2CCN(C(=O)CCCN3CC4(C3)CN(c3cccc5c3C(=O)N(C3CCC(=O)NC3=O)C5=O)C4)C2)c(F)cc1Nc1ncc2c(n1)N(C1CCCC1)CC(F)(F)C(=O)N2C (stereo partly drawn) [Example 175, 4-((9-cyclopentyl-7,7-difluoro-5-methyl-6-oxo-6,7,8,9-tetrahydro-5H-pyrimido[4,5-b][1,4]diazepin-2-yl)amino)-N-((3S)-1-(4-(6-(2-(2,6-dioxopiperidin-3-yl)-1,3-dioxoisoindolin-4-yl)-2,6-diazaspiro[3.3]heptan-2-yl)butanoyl)pyrrolidin-3-yl)-2-fluoro-5-methoxybenzamide]
